Assay results: patent publication US20240374573A1, “IMIDAZOLE CONTAINING COMPOUNDS, DERIVATIVES THEREFORE, AND USES THEREOF” (AglaeaPharma Inc., priority 2023, published 2024)
Structures can show the parent of a compound that is named as a salt.

Key:
brain proteins = test: in vitro; conditions: for % Undiluted Unbound (n = 3): brain homogenate
Experimental: The initial preparation of the dialysis membrane involved thawing brain homogenate in a water bath at room temperature and subsequently heating it at 37° C. for 10 minutes. The dialysis setup utilized was from HT Dialysis LLC, featuring a HT-Dialysis plate (Model HTD 96 b) and a dialysis membrane with a molecular weight cutoff of 12-14 kDa.
The membrane underwent a comprehensive pretreatment which included hydration in ultra-pure water at room temperature for approximately one hour. This was followed by separation and immersion in a 20:80 ethanol:water solution for about 20 minutes. After this treatment, the membranes were either used immediately or stored at 2-8° C. for up to one month, with a final rinse in ultra-pure water prior to experimental use.
For compound preparation, test and control substances were first dissolved to create 400 μM working solutions by mixing 4 μL of stock solution with 96 μL of DMSO. These working solutions were then further diluted to 2 μM in a blank matrix by combining 3 μL of the prepared solution with 597 μL of matrix, ensuring thorough mixing.
During the assay, 50 μL aliquots of the 2 μM compound-matrix mixture were dispensed in triplicate into a Sample Collection Plate. Each aliquot was paired with an equal volume of blank PBS to standardize the total volume to 100 μL per well at a 1:1 matrix to PBS ratio. A stop solution comprising 500 μL of acetonitrile with tolbutamide and labetalol at 250 nM each was added to stabilize the samples at TO. The samples were then shaken at 800 rpm for 10 minutes and stored at 2-8° C.
The dialysis procedure included assembling the dialysis device according to the manufacturer's specifications, loading the matrix aliquots into the donor side of the dialysis wells, and conducting the dialysis under a humidified atmosphere with 5% CO2 at 37° C. for 4 hours.
Post-dialysis, 50 μL samples were collected from both the receiver and donor sides into new 96-well plates. Volumes were adjusted to 100 μL by adding an equivalent amount of the opposite blank matrix or PBS. The samples were prepared for LC-MS/MS analysis after thorough vertexing and centrifugation. Blank control samples were prepared and processed similarly to mirror the test conditions.
Data analysis involved calculating the percentages of undiluted unbound and bound fractions, and recovery of the compounds.

in vivo = conditions: male, C57BL/6J, mouse, po, 5 mg/kg
Experimental: Male C57BL/6J mouse was use in the in vivo distribution assay. The sample of brain, spinal cord and serum were collected for the drug distribution calculation.
Before commencing the study, the mice were acclimated to the test facility for at least 3 days. During this period, their general health was assessed by veterinary staff or other authorized personnel. The mice were housed in groups of up to four per cage in polysulfone cages, using either certified aspen shaving bedding or corncob bedding. This bedding was regularly tested for environmental contaminants by the manufacturer. The facility's environment was carefully controlled to maintain a temperature range of 20-26° C., relative humidity between 40 to 70%, and a 12-hour light/12-hour dark cycle, although this cycle can be interrupted for study-related activities. Temperature and humidity were continuously monitored by the Vawasala ViewLinc Monitoring system.
For dosing, an appropriate amount of the compounds was accurately weighed and mixed with a suitable volume of vehicle to achieve a clear solution. This process may require vertexing or sonication in a water bath. The animals were dosed within four hours of formulation preparation. Samples from each formulation were then collected for dose validation using either LC/UV or LC-MS/MS analysis.
Oral gavage was employed for dosing following the facility's SOPs, with the dose volume based on the animal's body weight measured on the morning of the dosing day.
Blood collections were performed from the saphenous vein or another suitable site, with approximately 0.1 mL collected per time point into pre-chilled commercial EDTA-K2 tubes. The samples were kept on wet ice until centrifugation at 4° C. and 3,200 g for 10 minutes. The plasma was then transferred into pre-labeled 96-well plates or polypropylene tubes, quick-frozen over dry ice, and stored at −60° C. or lower until LC-MS/MS analysis. […]
We calculated AUC ratio from the equation AUC ratio=Tissue AUC0-last/plasma AUC0-last. […]

in vitro = conditions: male, C57BL/6J, mouse, plasma, pH 7.4
Experimental: (§1) The experiment utilized a HT-Dialysis plate (HTD 96 b) and a dialysis membrane with a molecular weight cutoff of 12-14 kDa. The plasma was derived from male C57BL/6J mice, treated with EDTA-K2 as an anticoagulant. The experimental procedure commenced with plasma thawing under cold tap water, followed by centrifugation at 3220×g for 5 minutes to eliminate clots, and pH adjustment to 7.4+0.1.
(§2) Dialysis membranes were initially hydrated in ultra-pure water for about one hour and then treated in a 20:80 ethanol-water mixture for 20 minutes. These prepared membranes could be used immediately or stored at 2-8° C. for up to a month. Membranes were rinsed in ultra-pure water before use.
(§3) Test and control compounds were prepared at a 400 µM concentration by diluting stock solutions with DMSO. Working solutions were further diluted to create 2 μM loading matrix solutions, which were thoroughly mixed. In the assay, 50 μL aliquots of these solutions were dispensed in triplicate into a Sample Collection Plate, balanced with blank PBS to a final volume of 100 µL per well. A stop solution containing acetonitrile, tolbutamide, and labetalol was added, and samples were mixed and cooled at 2 to 8° C.
(§4) During the dialysis, 100 μL aliquots from the loading matrix were placed in the dialysis well's donor side, matched with an equal volume of PBS on the receiver side, and incubated at 37° C. for 4 hours. Post-dialysis, samples from both sides were collected, balanced to 100 μL with corresponding blank fluids, treated with stop solution, vortexed, and centrifuged to prepare for LC-MS/MS analysis.
(§5) Data analysis involved calculating the percentages of Unbound, Bound, and Recovery of the compounds post-dialysis. % Unbound was calculated as the ratio of the compound's peak area on the receiver side to its internal standard, reflecting the fraction that crossed the membrane. % Bound was the complement of % Unbound, representing the fraction retained on the donor side. % Recovery was determined from the peak area ratios on both sides of the membrane, assessing the dialysis efficiency in retaining the compound. These metrics provided insights into the compound's free, bound, and recoverable quantities, elucidating its behavior in the dialysis system.

plasma proteins = test: in vitro; conditions: male, C57BL/6J, mouse, pH 7.4
Experimental: as §1, §2, §3, §4, §5

P-glycoprotein (P-gp) = P-glycoprotein (P-gp) (Homo sapiens, UniProt P08183); test: in vitro; conditions: MDCK-MDR1
Experimental: MDR1-MDCK II cells (obtained from Piet Borst at the Netherlands Cancer Institute) were seeded onto Polycarbonate membranes (PC) in 96-well insert systems at 3.33×10^5 cells/mL until to 4-7 days for confluent cell monolayer formation.
Selected α2AR agonist from table 3s were diluted with the transport buffer (HBSS with 10.0 mM Hepes, pH7.4) from DMSO stock solution to a concentration of 2 μM (DMSO<1%) and applied to the apical or basolateral side of the cell monolayer. […] Permeation of the test compounds from A to B direction and/or B to A direction was determined in duplicate. Digoxin was tested at 10.0 μM from A to B direction and B to A direction in duplicate. The plate was incubated for 2.5 hours in CO2 incubator at 37.0±1.0° C., with 5.0% CO2 at saturated humidity without shaking. In addition, the efflux ratio of each compound was also determined. Test and reference compounds were quantified by LC/MS/MS analysis based on the peak area ratio of analyte/IS.
After transport assay, lucifer yellow rejection assay was applied to determine the cell monolayer integrity. Buffers were removed from both apical and basolateral chambers, followed by the addition of 75 μL of 100 μM lucifer yellow in transport buffer and 250 μL transport buffer in apical and basolateral chambers, respectively. The plate was incubated for 30 minutes at 37.0° C. with 5.0% CO2 and 95.0% relative humidity without shaking. After 30 minutes incubation, 20 μL of lucifer yellow samples were taken from the apical sides, followed by the addition of 60 μL of transport Buffer. And then 80 μL of lucifer yellow samples were taken from the basolateral sides. The relative fluorescence unit (RFU) of lucifer yellow was measured at 425/528 nm (excitation/emission) with an Envision plate reader.
The apparent permeability coefficient Papp (cm/s) was calculated using the equation: […]
wherein dCr/dt is the cumulative concentration of compound in the receiver chamber as a function of time (μM/s); Vr is the solution volume in the receiver chamber (0.075 mL on the apical side, 0.25 mL on the basolateral side); A is the surface area for the transport, i.e. 0.143 cm2 for the area of the monolayer; and C0 is the initial concentration in the donor chamber (μM).
The efflux ratio was calculated using the equation: […]

MC38 tumor = tested on: MC38 tumor
Experimental: The cells in exponential growth phase were harvested and quantitated by cell counter before tumor inoculation. […] The date of randomization was denoted as day 0.
After tumor cells inoculation, the animals were checked daily for morbidity and mortality. […] Mortality and observed clinical signs were recorded for individual animals in detail. […] Dosing as well as tumor and body weight measurements were conducted in a Laminar Flow Cabinet. The body weights and tumor volumes were measured by using StudyDirector™ software (version 3.1.399.19).

[1] = mouse, in vivo, po, 1 mg/kg
Experimental: Initially, mice were acclimatized to the testing environment for 8 hours the day before the experiment, followed by at least 2 hours of habituation on the day of the test. The mice were then grouped randomly based on their body weight into six per group, ensuring a balanced distribution for the administration of the drug, which was dissolved in 20% HP-β-CD in water.
The locomotor activity was monitored by placing the mice in the center of a test box, with a video tracking system measuring the distance traveled every 5 minutes for 60 minutes. The testing began at T=0 minutes, immediately after administering the vehicle or compounds, and concluded at T=60 minutes. For data analysis, Prism 8.3.0 software was utilized, employing Two-way ANOVA followed by Bonferroni's multiple comparison test to analyze distance variations across different time points and One-way ANOVA followed by Dunnett's multiple comparisons test for assessing the total distance covered by the groups. A significance level of p<0.05 was established for determining significant differences.

[2] = D17, G2: 5 mg/kg p.o. QD Day 0~Day 3, then 2 mg/kg QD Day 4~Day 17

Chain of P-glycoprotein (P-gp) (P08183 whole entry): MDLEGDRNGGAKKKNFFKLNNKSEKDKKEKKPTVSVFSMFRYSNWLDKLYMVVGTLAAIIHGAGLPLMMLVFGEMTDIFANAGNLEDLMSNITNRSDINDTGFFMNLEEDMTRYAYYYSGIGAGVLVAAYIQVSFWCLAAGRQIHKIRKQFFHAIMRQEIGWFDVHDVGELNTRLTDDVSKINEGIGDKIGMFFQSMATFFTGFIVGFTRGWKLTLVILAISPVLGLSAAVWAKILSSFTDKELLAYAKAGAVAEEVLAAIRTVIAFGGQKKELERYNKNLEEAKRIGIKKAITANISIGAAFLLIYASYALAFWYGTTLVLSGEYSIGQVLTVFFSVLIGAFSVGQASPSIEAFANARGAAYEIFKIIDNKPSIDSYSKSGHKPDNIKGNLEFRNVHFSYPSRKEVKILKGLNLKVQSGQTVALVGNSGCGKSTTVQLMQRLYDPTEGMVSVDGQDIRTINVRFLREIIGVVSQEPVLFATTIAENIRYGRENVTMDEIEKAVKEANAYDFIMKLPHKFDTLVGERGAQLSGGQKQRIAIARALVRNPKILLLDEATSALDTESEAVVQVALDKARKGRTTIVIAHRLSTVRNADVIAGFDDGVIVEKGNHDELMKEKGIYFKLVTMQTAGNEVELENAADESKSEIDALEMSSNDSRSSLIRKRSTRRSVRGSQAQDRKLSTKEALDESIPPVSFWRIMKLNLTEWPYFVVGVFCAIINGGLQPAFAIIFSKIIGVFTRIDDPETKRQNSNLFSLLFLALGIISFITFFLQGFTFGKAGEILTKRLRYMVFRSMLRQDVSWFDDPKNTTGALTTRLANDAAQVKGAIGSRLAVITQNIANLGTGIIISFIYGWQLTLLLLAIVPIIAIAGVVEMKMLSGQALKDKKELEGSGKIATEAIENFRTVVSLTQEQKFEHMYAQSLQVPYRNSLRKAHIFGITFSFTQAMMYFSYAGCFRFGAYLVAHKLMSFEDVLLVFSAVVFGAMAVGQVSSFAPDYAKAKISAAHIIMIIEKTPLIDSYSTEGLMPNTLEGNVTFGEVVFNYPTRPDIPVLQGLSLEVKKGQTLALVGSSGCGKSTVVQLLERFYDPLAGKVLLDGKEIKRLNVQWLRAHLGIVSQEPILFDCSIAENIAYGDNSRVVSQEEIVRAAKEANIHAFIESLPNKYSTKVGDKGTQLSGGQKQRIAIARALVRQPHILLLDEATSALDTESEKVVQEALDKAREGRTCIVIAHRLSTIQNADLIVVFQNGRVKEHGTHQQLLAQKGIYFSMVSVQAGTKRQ

| Compound | recovery at 4 h, 2 μM (brain proteins) | % Undiluted Unbound (n = 3) (brain proteins; 4 h, 2 μM) | Kp (in vivo) | fraction unbound at 4 h, 2 μM (in vitro) | recovery at 4 h, 2 μM (plasma proteins) | further results |
| --- | --- | --- | --- | --- | --- | --- |
| CC(C)NCC(O)COc1cccc2ccccc12 (centres unmarked) [Propranolol, propranolol] | 109% | 2.6% |  |  |  | % Undiluted Bound (n = 3) (brain proteins; 4 h, 2 μM): 97.4% |
| Clc1cccc(Cl)c1N=C1NCCN1 [Clonidine HCl, clonidine HCl] | 105% | 23.0% | 2.27 | 0.708 | 93.2% | Kp uu (in vivo): 0.739 |
| Oc1ccc2c(c1)C(Cc1c[nH]cn1)CC2 (centres unmarked) [Fadolmidine, reference compound] |  |  |  |  |  | Efflux ratio (P-glycoprotein (P-gp)): 0.80 |
| Clc1cccc(Cl)c1N=C1NCCN1 [Clonidine, clonidine] |  |  |  |  |  | T/C (%) (MC38 tumor; [2]): 27.38%; TGI (%) (MC38 tumor; [2]): 72.62%; Tumor volume (mm^3) (mean ± SEM) (MC38 tumor; [2]): 766.52 ± 147.17 mm^3; state of mice at high dose (MC38 tumor; G2 group, 5 mg/mL, Day 0-3, p.o.): poor state of mice; sedation (total distance travelled 0-60 min) [1]: significant sedation |
| Cc1cccc([C@H](C)c2cnc[nH]2)c1C [Dexmedetomidine HCl, dexmedetomidine HCl] | 93.8% | 6.3% | 1.26 | 0.068 | 88.9% |  |
